Here are results for 31 molecules from patent US8114885B2, “Chemical compounds” (GlaxoSmithKline LLC, priority 2000, dated 2012).

Structures can show the parent of a compound that is named as a salt.

The experiment concerns HUVEC. The experiment is described as follows: Human Umbilical Vein Endothelial Cell (HUVEC) proliferation assay (BrdU incorporation). It is filed as cell-based. To be noted: VEGF-stimulated HUVEC, 72 hrs, read-out: Inhibition of HUVEC proliferation IC50. The procedure:
Human Umbilical Vein Endothelial Cell (HUVEC) Proliferation Assay (BrdU Incorporation) Materials
HUVEC cells and EGM-MV (Endothelial cell growth medium—microvascular) were purchased from Clonetics (San Diego, Calif.). VEGF and bFGF were purchased from R&D Systems (Minneapolis, Minn.). Anti-BrdU antibody was obtained from Chemicon International (Temecula, Calif.).
HUVECs were routinely maintained in EGM-MV medium and were used within passage 7. HUVECs were plated at a density of 2500 cells/well in M199 medium containing 5% FBS (Hyclone) in type I collagen coated plate (Becton Dickinson). The plate was incubated at 37° C. overnight. The medium was removed by aspiration, and test compounds were added to each well in a volume of 0.1 ml/well in serum-free M199 medium. Compound concentrations ranged from 1.5 nM to 30 micromolar. The plate was incubated for 30 min at 37° C. Another 0.1 ml of serum-free M199 medium containing BSA and VEGF (or bFGF) was added to give a final concentration of 0.1% BSA and 10 ng/ml VEGF (0.3 ng/ml bFGF). The plate was incubated at 37° C. for 72 hrs. BrdU was added to each well after the first 48 hrs to give a concentration of 10 micromolar. The calorimetric ELISA assay was performed according to manufacturer's (Roche Molecular Sciences) instructions, with detection by absorbance reading at 450 nm. Results were plotted as concentration of test compound vs. absorbance to give an IC50 value for inhibition of BrdU incorporation.

For `Cc1ccc(S(N)(=O)=O)cc1Nc1nccc(N(C)c2ccc3c(C)n[nH]c3c2)n1` [Example 65, 4-methyl-3-({4-[methyl(3-methyl-1H-indazol-6-yl)amino]-2-pyrimidinyl}amino)benzenesulfonamide], the IC50 was 1 to 200 nM.

Turning to `COc1ccc(S(=O)(=O)C(C)C)cc1Nc1nccc(N(C)c2ccc3c(C)n[nH]c3c2)n1` [Example 35, N^2-[5-(isopropylsulfonyl)-2-methoxyphenyl]-N^4-methyl-N^4-(3-methyl-1H-indazol-6-yl)-2,4-pyrimidinediamine], the IC50 is 1 to 200 nM. With `Cc1c2ccc(N(C)c3ncnc(Nc4cccc(S(N)(=O)=O)c4)n3)cc2nn1C` [Example 78, 3-({4-[(2,3-dimethyl-2H-indazol-6-yl)(methyl)amino]-1,3,5-triazin-2-yl}amino)benzenesulfonamide], the IC50 fell in the range of 1 to 200 nM. As for `Cc1n[nH]c2cc(N(C)c3nc(Nc4cccc(CS(=O)(=O)C(C)C)c4)ncc3F)ccc12` [Example 12, 5-fluoro-N^2-{3-[(isopropylsulfonyl)methyl]phenyl}-N^4-methyl-N^4-(3-methyl-1H-indazol-6-yl)-2,4-pyrimidinediamine], the IC50 fell in the range of 1 to 200 nM.

On to `Cc1n[nH]c2cc(N(C)c3ccnc(Nc4cccc(CS(C)(=O)=O)c4)n3)ccc12` [Example 23, N^4-methyl-N^4-(3-methyl-1H-indazol-6-yl)-N^2-{3-[(methylsulfonyl)methyl]phenyl}-2,4-pyrimidinediamine], for which the IC50 was 1 to 200 nM. As to `CCS(=O)(=O)c1ccc(OC)c(Nc2ncnc(N(C)c3ccc4c(C)n[nH]c4c3)n2)c1` [Example 17, N^2-[5-(ethylsulfonyl)-2-methoxyphenyl]-N^4-methyl-N^4-(3-methyl-1H-indazol-6-yl)-1,3,5-triazine-2,4-diamine hydrochloride], the IC50 was in the range of 501 to 1000 nM. In the case of `Cc1n[nH]c2cc(N(C)c3nc(Nc4ccc(S(C)(=O)=O)cc4)ncc3F)ccc12` [Example 7, 5-fluoro-N^4-methyl-N^4-(3-methyl-1H-indazol-6-yl)-N^2-[4-(methylsulfonyl)phenyl]-2,4-pyrimidinediamine], the IC50 lay in the range of 201 to 500 nM. As for `CCC(=O)c1ccc(OC)c(Nc2nccc(Nc3ccc4c(C)n[nH]c4c3)n2)c1` [Example 41, 1-[4-methoxy-3-({4-[(3-methyl-1H-indazol-6-yl)amino]-2-pyrimidinyl}amino)phenyl]-1-propanone], the IC50 lay in the range of 501 to 1000 nM.

As for `Cc1cc(S(N)(=O)=O)ccc1Nc1nccc(N(C)c2ccc3c(C)n[nH]c3c2)n1` [Example 63, 3-methyl-4-({4-[methyl(3-methyl-1H-indazol-6-yl)amino]-2-pyrimidinyl}amino)benzenesulfonamide], the IC50 lay in the range of 201 to 500 nM. In the case of `Cc1c2ccc(N(C)c3ccnc(Nc4cccc(S(N)(=O)=O)c4)n3)cc2nn1C` [Example 70, 3-({4-[(2,3-dimethyl-2H-indazol-6-yl)(methyl)amino]pyrimidin-2-yl}amino)benzenesulfonamide], the IC50 was 1 to 200 nM. Then `Cc1n[nH]c2cc(N(C)c3ccnc(Nc4cccc(S(C)(=O)=O)c4)n3)ccc12` [Example 53, N^4-methyl-N^4-(3-methyl-1H-indazol-6-yl)-N^2-[3-(methylsulfonyl)phenyl]-2,4-pyrimidinediamine], with 1 to 200 nM; and `Cc1ccc(Nc2ncnc(N(C)c3ccc4c(C)n(C)nc4c3)n2)cc1S(N)(=O)=O` [Example 79, 5-({4-[(2,3-dimethyl-2H-indazol-6-yl)(methyl)amino]-1,3,5-triazin-2-yl}amino)-2-methylbenzenesulfonamide], with 201 to 500 nM.

Turning to `Cc1c2ccc(N(C)c3ccnc(Nc4ccc(CCS(N)(=O)=O)cc4)n3)cc2nn1C` [Example 71, 2-[4-({4-[(2,3-dimethyl-2H-indazol-6-yl)(methyl)amino]pyrimidin-2-yl}amino)phenyl]ethanesulfonamide], the IC50 lay within 1 to 200 nM. Turning to `Cc1c2ccc(N(C)c3ccnc(Nc4cccc(CS(C)(=O)=O)c4)n3)cc2nn1C` [Example 39, N^4-(2,3-dimethyl-2H-indazol-6-yl)-N^4-methyl-N^2-{3-[(methylsulfonyl)methyl]phenyl}-2,4-pyrimidinediamine], the IC50 lay within 1 to 200 nM. Then `Cc1c2ccc(N(C)c3ccnc(Nc4cccc(S(N)(=O)=O)c4)n3)cc2nn1Cc1cccc(Cl)c1` [Example 77, 3-({4-[[2-(3-chlorobenzyl)-3-methyl-2H-indazol-6-yl](methyl)amino]pyrimidin-2-yl}amino)benzenesulfonamide], with 1 to 200 nM; and `Cc1n[nH]c2cc(N(C)c3nc(Nc4cccc(CS(C)(=O)=O)c4)ncc3F)ccc12` [Example 3, 5-fluoro-N^4-methyl-N^4-(3-methyl-1H-indazol-6-yl)-N^2-{3-[(methylsulfonyl)methyl]phenyl}-2,4-pyrimidinediamine], with 1 to 200 nM; and `CCN(c1ccc2c(C)n[nH]c2c1)c1ccnc(Nc2cc(S(=O)(=O)CC)ccc2OC)n1` [Example 26, N^4-ethyl-N^2-[5-(ethylsulfonyl)-2-methoxyphenyl]-N^4-(3-methyl-1H-indazol-6-yl)-2,4-pyrimidinediamine], with 201 to 500 nM. Then `Cc1n[nH]c2cc(N(C)c3ncnc(Nc4cccc(S(C)(=O)=O)c4)n3)ccc12` [Example 19, N^2-methyl-N^2-(3-methyl-1H-indazol-6-yl)-N^4-[3-(methylsulfonyl)phenyl]-1,3,5-triazine-2,4-diamine], with 201 to 500 nM; and `CCS(=O)(=O)NCc1ccc(Nc2nccc(N(C)c3ccc4c(C)n[nH]c4c3)n2)cc1` [Example 58, N-[4-({4-[methyl(3-methyl-1H-indazol-6-yl)amino]-2-pyrimidinyl}amino)benzyl]ethanesulfonamide], with 1 to 200 nM; and `Cc1c2ccc(N(C)c3ccnc(Nc4ccc(CS(C)(=O)=O)cc4)n3)cc2nn1C` [Example 72, N^4-(2,3-dimethyl-2H-indazol-6-yl)-N^4-methyl-N^2-{4-[(methylsulfonyl)methyl]phenyl}pyrimidine-2,4-diamine], with 1 to 200 nM. For `COc1cc(S(N)(=O)=O)ccc1Nc1nccc(N(C)c2ccc3c(C)n[nH]c3c2)n1` [Example 49, 3-methoxy-4-({4-[methyl(3-methyl-1H-indazol-6-yl)amino]-2-pyrimidinyl}amino)benzenesulfonamide], the IC50 was in the range of 1 to 200 nM.

For the molecule `Cc1n[nH]c2cc(N(C)c3ccnc(Nc4ccc(CS(=O)(=O)C(C)C)cc4)n3)ccc12` [Example 29, N^2-{4-[(isopropylsulfonyl)methyl]phenyl}-N^4-methyl-N^4-(3-methyl-1H-indazol-6-yl)-2,4-pyrimidinediamine], the IC50 lay within 1 to 200 nM. Then `CNS(=O)(=O)c1ccc(OC)c(Nc2nccc(Nc3ccc4c(C)n[nH]c4c3)n2)c1` [Example 43, 4-methoxy-N-methyl-3-({4-[(3-methyl-1H-indazol-6-yl)amino]-2-pyrimidinyl}amino)benzenesulfonamide], with 201 to 500 nM. The figure for `COc1ccc(S(C)(=O)=O)cc1Nc1nccc(N(C)c2ccc3c(C)n[nH]c3c2)n1` [Example 68, N^2-[2-methoxy-5-(methylsulfonyl)phenyl]-N^4-methyl-N^4-(3-methyl-1H-indazol-6-yl)-2,4-pyrimidinediamine] is 1 to 200 nM; for `Cc1n[nH]c2cc(N(C)c3ccnc(Nc4ccc(C(N)=O)cc4)n3)ccc12` [Example 48, 4-({4-[methyl(3-methyl-1H-indazol-6-yl)amino]-2-pyrimidinyl}amino)benzamide] it is 1 to 200 nM. Then `CCS(=O)(=O)c1ccc(OC)c(Nc2nccc(N(CC#N)c3ccc4c(C)n[nH]c4c3)n2)c1` [Example 45, [{2-[5-(ethylsulfonyl)-2-methoxyanilino]-4-pyrimidinyl}(3-methyl-1H-indazol-6-yl)amino]acetonitrile], with 501 to 1000 nM; and `Cc1n[nH]c2cc(N(C)c3ccnc(Nc4cc(S(N)(=O)=O)ccc4Cl)n3)ccc12` [Example 62, 4-chloro-3-({4-[methyl(3-methyl-1H-indazol-6-yl)amino]-2-pyrimidinyl}amino)benzenesulfonamide], with 1 to 200 nM.

For `Cc1ccc(Nc2ncnc(N(C)c3ccc4c(C)n[nH]c4c3)n2)cc1NS(C)(=O)=O` [Example 18, N-[2-methyl-5-({4-[methyl(3-methyl-1H-indazol-6-yl)amino]-1,3,5-triazin-2-yl}amino)phenyl]methanesulfonamide], the IC50 lay within 501 to 1000 nM.

Turning to `Cc1nn(C)c2cc(N(C)c3ccnc(Nc4cccc(CS(C)(=O)=O)c4)n3)ccc12` [Example 38, N^4-(1,3-dimethyl-1H-indazol-6-yl)-N^4-methyl-N^2-{3-[(methylsulfonyl)methyl]phenyl}-2,4-pyrimidinediamine], the IC50 lay in the range of 201 to 500 nM. As for `Cc1n[nH]c2cc(N(CC#N)c3ccnc(Nc4cccc(CS(C)(=O)=O)c4)n3)ccc12` [Example 46, [(3-methyl-1H-indazol-6-yl)(2-{3-[(methylsulfonyl)methyl]anilino}-4-pyrimidinyl)amino]acetonitrile], the IC50 was in the range of 1 to 200 nM. As for `Cc1n[nH]c2cc(N(C)c3ccnc(Nc4cccc(CNS(C)(=O)=O)c4)n3)ccc12` [Example 59, N-[3-({4-[methyl (3-methyl-1H-indazol-6-yl)amino]-2-pyrimidinyl}amino)benzyl]methanesulfonamide], the IC50 is 1 to 200 nM.
